The numbers were not newly measured in patent US20040067918A1, “Combination of an aldosterone receptor antagonist and nicotinic acid or a nicotinic acid derivative” (priority 2002, published 2004), which cites them from elsewhere.

For this data set the following is noted: severe heart failure patients on standard therapy, relative to placebo-treated subjects.

As to `CC(=O)SC1CC2=CC(=O)CCC2(C)C2CCC3(C)C(CCC34CCC(=O)O4)C12` (stereo not drawn) [spironolactone, 17-hydroxy-7α-mercapto-3-oxo-17α-pregn-4-ene-21-carboxylic acid γ-lactone acetate], the incidence of hospitalization entry is on record as “statistically significant reduction” and the mortality entry is on record as “statistically significant reduction”.
